Measured values published in US8680134B2, “Triptans for the treatment of psoriasis” (priority 2009, dated 2014).
Entries after “also recorded” stand apart in the source; their conditions may differ.

How the values were obtained:
[1] = system: psoriasis lesions (scales) on elbow; test: Example 1: topical sumatriptan cream on one elbow, then the other, in a subject with chronic psoriasis; type: in vivo, human; settings: cream 0.04% w/w sumatriptan
Method: A subject with chronic psoriasis was administered a cream composed of 0.04% w/w sumatriptan, Dimethicon, Capric Caprylic triglyceride, Mineral oil, Cetyl alcohol & Glyceryl stearate & PEG-75 & Ceteth-20 & Steareth-20, Cetearyl alcohol, Shea butter, Glycerin, Triclosan, Propylene Glycol, Sodium Benzoate, Methylisothiazolinone in water. It was used for five days, once daily, on one elbow. […] No change was observed on psoriasis lesions on the untreated side. The subject was instructed to use the cream once daily on the complementary elbow.

[2] = system: psoriasis scales on both elbows; test: Example 2: sumatriptan cream on left elbow versus carrier cream on right elbow in the same subject; type: in vivo, human
Source text: A subject with scales on both elbows was recruited. The subject used twice daily for 5 days two different creams: • a.
The abovementioned design eliminates the mild possible therapeutic effect of an emollient on scales and healing. The mode of treatment eliminates as well the possibility of self healing or placebo effect.

CNS(=O)(=O)Cc1ccc2[nH]cc(CCN(C)C)c2c1 [sumatriptan, 1-[3-(2-Dimethylaminoethyl)-1H-indol-5-yl]-N-methyl-methanesulfonamide]
skin condition of the treated elbow ([1]; once daily for five days, one elbow): Healthy skin with normalization was noted
scales on the treated elbow ([1]; once daily for five days, one elbow, person with chronic psoriasis): disappearance of scales was prominent on the treated side
skin normalization on the complementary elbow ([1]; once daily, after scale disappearance): skin turned into normal within the next week
time to scale disappearance on the complementary elbow ([1]; once daily, complementary elbow): three
scales and skin condition of the treated (left) elbow ([2]; cream 0.04% w/w sumatriptan (40 mg/100 ml), twice daily, four days after start of use, person): Disappearance of scales and skin return to normal is noted; also recorded: normalized the skin
duration of remission of psoriasis on the treated elbow ([2]; cream 0.04% w/w sumatriptan, left elbow): about one
additional time to completed skin normalization ([2]; cream 0.04% w/w sumatriptan, left elbow, counted after the first four days): 4 to 5 days
